Assay results as given in PubChem BioAssay (NCI).
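In this assay, cells in 96-well plates receive the compound at five concentrations for 48 hours. Endpoints are linearly interpolated between the surrounding concentrations. Here, GI50 denotes the concentration required for 50% inhibition of growth. TGI: total growth inhibition.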

Assays:
Experiment in all cases: growth of human tumour cells (NCI), 48 h
K-562 leukemia = tested on: K-562 leukemia
MALME-3M melanoma = tested on: MALME-3M melanoma
UO-31 renal = tested on: UO-31 renal
OVCAR-5 ovarian = tested on: OVCAR-5 ovarian
HCT-15 colon = tested on: HCT-15 colon
NCI-H226 lung = tested on: NCI-H226 lung
MDA-MB-231 breast = tested on: MDA-MB-231 breast
BT-549 breast = tested on: BT-549 breast
HCC-2998 colon = tested on: HCC-2998 colon
MDA-MB-435 = tested on: MDA-MB-435
CAKI-1 renal = tested on: CAKI-1 renal
SN12C renal = tested on: SN12C renal
NCI/ADR-RES ovarian = tested on: NCI/ADR-RES ovarian
SK-MEL-5 melanoma = tested on: SK-MEL-5 melanoma
COLO 205 colon = tested on: COLO 205 colon
EKVX NSCLC = tested on: EKVX NSCLC
OVCAR-8 ovarian = tested on: OVCAR-8 ovarian
DU-145 prostate = tested on: DU-145 prostate
HT29 colon = tested on: HT29 colon
T-47D breast = tested on: T-47D breast
IGROV1 ovarian = tested on: IGROV1 ovarian
NCI-H522 lung = tested on: NCI-H522 lung
OVCAR-3 ovarian = tested on: OVCAR-3 ovarian
SNB-19 CNS = tested on: SNB-19 CNS
CCRF-CEM leukemia = tested on: CCRF-CEM leukemia
A549 NSCLC = tested on: A549 NSCLC
U251 CNS = tested on: U251 CNS
ACHN renal = tested on: ACHN renal
786-0 renal = tested on: 786-0 renal
SK-MEL-2 melanoma = tested on: SK-MEL-2 melanoma
KM12 colon = tested on: KM12 colon
SF-295 CNS = tested on: SF-295 CNS
SW-620 colon = tested on: SW-620 colon
SK-OV-3 ovarian = tested on: SK-OV-3 ovarian
A498 renal = tested on: A498 renal
MCF7 breast = tested on: MCF7 breast
HL-60(TB) leukemia = tested on: HL-60(TB) leukemia
PC-3 prostate = tested on: PC-3 prostate
LOX IMVI melanoma = tested on: LOX IMVI melanoma
SF-268 CNS = tested on: SF-268 CNS
NCI-H23 lung = tested on: NCI-H23 lung
UACC-257 melanoma = tested on: UACC-257 melanoma
SK-MEL-28 melanoma = tested on: SK-MEL-28 melanoma
SF-539 CNS = tested on: SF-539 CNS
TK-10 renal = tested on: TK-10 renal
UACC-62 melanoma = tested on: UACC-62 melanoma
HOP-92 NSCLC = tested on: HOP-92 NSCLC
M14 melanoma = tested on: M14 melanoma
OVCAR-4 ovarian = tested on: OVCAR-4 ovarian
HCT-116 colon = tested on: HCT-116 colon
NCI-H460 lung = tested on: NCI-H460 lung
SR leukemia = tested on: SR leukemia
RXF 393 renal = tested on: RXF 393 renal
HS 578T breast = tested on: HS 578T breast
RPMI-8226 leukemia = tested on: RPMI-8226 leukemia
SNB-75 CNS = tested on: SNB-75 CNS
HOP-62 NSCLC = tested on: HOP-62 NSCLC
MDA-MB-468 breast = tested on: MDA-MB-468 breast
MOLT-4 leukemia = tested on: MOLT-4 leukemia

CC(=C(c1ccc(OCCN2CCCCC2)cc1)c1ccc(OCCN2CCCCC2)cc1)c1ccccc1
GI50 (K-562 leukemia): 3.26 µM
TGI (K-562 leukemia): > 21.8 µM
GI50 (MALME-3M melanoma): 3.38 µM
TGI (MALME-3M melanoma): 6.31 µM
GI50 (UO-31 renal): 3.82 µM
TGI (UO-31 renal): 10.4 µM
GI50 (OVCAR-5 ovarian): 11.7 µM
TGI (OVCAR-5 ovarian): > 21.8 µM
GI50 (HCT-15 colon): 4.98 µM
TGI (HCT-15 colon): > 21.8 µM
GI50 (NCI-H226 lung): > 21.8 µM
TGI (NCI-H226 lung): > 21.8 µM
GI50 (MDA-MB-231 breast): 4 µM
TGI (MDA-MB-231 breast): 9.17 µM
GI50 (BT-549 breast): > 21.8 µM
TGI (BT-549 breast): > 21.8 µM
GI50 (HCC-2998 colon): 4.7 µM
TGI (HCC-2998 colon): 21 µM
GI50 (MDA-MB-435): 3.25 µM
TGI (MDA-MB-435): 6.88 µM
GI50 (CAKI-1 renal): 5.01 µM
TGI (CAKI-1 renal): > 21.8 µM
GI50 (SN12C renal): > 21.8 µM
TGI (SN12C renal): > 21.8 µM
GI50 (NCI/ADR-RES ovarian): 12.1 µM
TGI (NCI/ADR-RES ovarian): > 21.8 µM
GI50 (SK-MEL-5 melanoma): 3.64 µM
TGI (SK-MEL-5 melanoma): 6.87 µM
GI50 (COLO 205 colon): 3.53 µM
TGI (COLO 205 colon): 7.61 µM
GI50 (EKVX NSCLC): > 21.8 µM
TGI (EKVX NSCLC): > 21.8 µM
GI50 (OVCAR-8 ovarian): > 21.8 µM
TGI (OVCAR-8 ovarian): > 21.8 µM
GI50 (DU-145 prostate): 12.4 µM
TGI (DU-145 prostate): > 21.8 µM
GI50 (HT29 colon): 3.77 µM
TGI (HT29 colon): 11.7 µM
GI50 (T-47D breast): 2.55 µM
TGI (T-47D breast): 6.6 µM
GI50 (IGROV1 ovarian): 9.78 µM
TGI (IGROV1 ovarian): > 21.8 µM
GI50 (NCI-H522 lung): 3.26 µM
TGI (NCI-H522 lung): 7.85 µM
GI50 (OVCAR-3 ovarian): 3.84 µM
TGI (OVCAR-3 ovarian): 17.2 µM
GI50 (SNB-19 CNS): 6.88 µM
TGI (SNB-19 CNS): > 21.8 µM
GI50 (CCRF-CEM leukemia): 5.2 µM
TGI (CCRF-CEM leukemia): 21.7 µM
GI50 (A549 NSCLC): 5.91 µM
TGI (A549 NSCLC): > 21.8 µM
GI50 (U251 CNS): 3.76 µM
TGI (U251 CNS): 8.51 µM
GI50 (ACHN renal): 5.2 µM
TGI (ACHN renal): 17.2 µM
GI50 (786-0 renal): 3.39 µM
TGI (786-0 renal): 6.91 µM
GI50 (SK-MEL-2 melanoma): 3.85 µM
TGI (SK-MEL-2 melanoma): 7.72 µM
GI50 (KM12 colon): 8.17 µM
TGI (KM12 colon): > 21.8 µM
GI50 (SF-295 CNS): 3.52 µM
TGI (SF-295 CNS): 7.17 µM
GI50 (SW-620 colon): 2.95 µM
TGI (SW-620 colon): 6.86 µM
GI50 (SK-OV-3 ovarian): > 21.8 µM
TGI (SK-OV-3 ovarian): > 21.8 µM
GI50 (A498 renal): > 21.8 µM
TGI (A498 renal): > 21.8 µM
GI50 (MCF7 breast): 0.625 µM
TGI (MCF7 breast): 4.98 µM
GI50 (HL-60(TB) leukemia): 2.67 µM
TGI (HL-60(TB) leukemia): 7.09 µM
GI50 (PC-3 prostate): 8.19 µM
TGI (PC-3 prostate): > 21.8 µM
GI50 (LOX IMVI melanoma): 3.48 µM
TGI (LOX IMVI melanoma): 6.59 µM
GI50 (SF-268 CNS): 5.56 µM
TGI (SF-268 CNS): > 21.8 µM
GI50 (NCI-H23 lung): 12.5 µM
TGI (NCI-H23 lung): > 21.8 µM
GI50 (UACC-257 melanoma): 3.18 µM
TGI (UACC-257 melanoma): 6.3 µM
GI50 (SK-MEL-28 melanoma): 3.62 µM
TGI (SK-MEL-28 melanoma): 6.68 µM
GI50 (SF-539 CNS): 3.39 µM
TGI (SF-539 CNS): 6.39 µM
GI50 (TK-10 renal): 16.7 µM
TGI (TK-10 renal): > 21.8 µM
GI50 (UACC-62 melanoma): 3.64 µM
TGI (UACC-62 melanoma): 6.83 µM
GI50 (HOP-92 NSCLC): 5.01 µM
TGI (HOP-92 NSCLC): > 21.8 µM
GI50 (M14 melanoma): 3.95 µM
TGI (M14 melanoma): 8.32 µM
GI50 (OVCAR-4 ovarian): 7.66 µM
TGI (OVCAR-4 ovarian): > 21.8 µM
GI50 (HCT-116 colon): 3.43 µM
TGI (HCT-116 colon): 10.1 µM
GI50 (NCI-H460 lung): 4.1 µM
TGI (NCI-H460 lung): 9.98 µM
GI50 (SR leukemia): 3.68 µM
TGI (SR leukemia): 11.5 µM
GI50 (RXF 393 renal): 3.21 µM
TGI (RXF 393 renal): 10.4 µM
GI50 (HS 578T breast): 3.33 µM
TGI (HS 578T breast): 10.9 µM
GI50 (RPMI-8226 leukemia): 6.54 µM
TGI (RPMI-8226 leukemia): > 21.8 µM
GI50 (SNB-75 CNS): 3.79 µM
TGI (SNB-75 CNS): > 21.8 µM
GI50 (HOP-62 NSCLC): 6.45 µM
TGI (HOP-62 NSCLC): > 21.8 µM
GI50 (MDA-MB-468 breast): 3.79 µM
TGI (MDA-MB-468 breast): 9.45 µM
GI50 (MOLT-4 leukemia): 4.15 µM
TGI (MOLT-4 leukemia): 12.9 µM
